Target: T1, BK channels (Oryctolagus cuniculus, UniProt Q9BG98)
T1 construct: wherein the native BK channels were more sensitive to Ca^2+; from tissue
Experiment: Single channel recordings, inside-out patch clamp, voltage ramps, isolated smooth muscle cells of the rabbit bladder
Format: cell-based
Conditions: for effect on BK channel activity, in words (SAR discussion based on V1/2 data): inside out patches on rabbit smooth muscle cells
Method: All experiments were approved by the Dundalk Institute of Technology Animal Care and Use Committee. […] The urinary bladder and most proximal 1.5 cm of the urethra was removed and placed in Krebs solution. Strips of bladder tissue, 0.5 cm in width were dissected, cut into 1 mm^3 pieces and stored in Ca^2+-free Hanks' solution for 30 min prior to cell dispersal. Tissue pieces were incubated in dispersal medium containing (per 5 ml) of Ca^2+-free Hanks' solution: 15 mg collagenase (Sigma type 1A), 1 mg protease (Sigma type XXIV), 10 mg bovine serum albumin (Sigma) and 10 mg trypsin inhibitor (Sigma) for 10-15 min at 37° C. Tissue was then transferred to Ca^2+-free Hanks' solution and stirred for a further 10-15 min to release single smooth muscle cells. These were plated in Petri dishes containing 100 μM Ca^2+ Hanks' solution and stored at 4° C. for use within 8 h. During experiments, the dish containing the cells was continuously perfused with Hanks' solution at 36±1° C. Additionally the cell under study was continuously superfused by means of a custom built close delivery system with a pipette of tip diameter 200 μm placed approximately 300 μm from the cell. The high K^+ solution in the close delivery system could be switched to a drug-containing solution with a dead space time of less than 5 s.
For whole cell recordings pipettes were pulled from borosilicate glass capillary tubing (1.5 mm outer diameter, 1.17 mm inner diameter; Clark Medical Instruments) to a tip of diameter approximately 1-1.5 μm and resistance of 2-4 Mohms. For single channel recordings, pipettes were pulled from borosilicate glass capillary tubing (1.5 mm outer diameter, 0.8 mm inner diameter; Clark Medical Instruments) and fire polished before use. Voltage clamp commands were delivered via an Axopatch 1D or Axon 200B patch clamp amplifiers (Axon Instruments) and membrane currents were recorded by a 12 bit AD/DA converter (Axodata 1200 or Labmaster, Scientific Solutions) interfaced to an Intel computer running pCLAMP software.
All values in (mM): KCl, 140. Glucose, 10, EGTA 1 and HEPES, 10. For free Ca^2+ greater than 300 nM: All values in (mM): KCl, 140. Glucose, 10, H-EDTA 1 and HEPES, 10. The same solution composition is used in the bath as in the patch pipette for these experiments except that the pipette solution contained 100 nM Ca^2+.
In single channel experiments voltage commands were applied using pClamp ramped potentials. This allowed more efficient measurement of slope conductance and channel activation than conventional step depolarisations. Activation curves were calculated by averaging current responses to 15 potential ramps and dividing each data point of the averaged current by the single channel amplitude at that holding potential, after leakage current correction. […] This analysis provides a continuous recording of the number of open channels multiplied by the open probability (NPo) over the entire voltage range. To obtain values for the steepness of the voltage-dependent activation and half-maximal activation voltage, activation curves were fitted with Boltzman functions of the form: NPo=n/{1+exp[−K(V−V1/2)]} where N is the number of channels in the patch, n is the maximal NPo level, K^−1 is the steepness of the voltage-dependent activation (change in potential necessary to cause an e-fold increase in activation) and V1/2 is the voltage at which there is half-maximal activation. Again, all of the experiments were carried out at 36±1° C.
The patches were held at a potential of −100 mV and voltage ramps were then applied from −100 mV up to +100 mV over 2 s.
Patches were held at −100 mV and ramped through to +100 mV and each sweep was repeated 15 times. The same protocol was repeated after the patch was incubated in 1 μM Ca^2+.

[1] = Table 1, 10 μM compound, inside-out patch, V1/2 control vs drug
[2] = Table 2, 10 μM compound, inside-out patch

T1 sequence (Q9BG98 whole entry): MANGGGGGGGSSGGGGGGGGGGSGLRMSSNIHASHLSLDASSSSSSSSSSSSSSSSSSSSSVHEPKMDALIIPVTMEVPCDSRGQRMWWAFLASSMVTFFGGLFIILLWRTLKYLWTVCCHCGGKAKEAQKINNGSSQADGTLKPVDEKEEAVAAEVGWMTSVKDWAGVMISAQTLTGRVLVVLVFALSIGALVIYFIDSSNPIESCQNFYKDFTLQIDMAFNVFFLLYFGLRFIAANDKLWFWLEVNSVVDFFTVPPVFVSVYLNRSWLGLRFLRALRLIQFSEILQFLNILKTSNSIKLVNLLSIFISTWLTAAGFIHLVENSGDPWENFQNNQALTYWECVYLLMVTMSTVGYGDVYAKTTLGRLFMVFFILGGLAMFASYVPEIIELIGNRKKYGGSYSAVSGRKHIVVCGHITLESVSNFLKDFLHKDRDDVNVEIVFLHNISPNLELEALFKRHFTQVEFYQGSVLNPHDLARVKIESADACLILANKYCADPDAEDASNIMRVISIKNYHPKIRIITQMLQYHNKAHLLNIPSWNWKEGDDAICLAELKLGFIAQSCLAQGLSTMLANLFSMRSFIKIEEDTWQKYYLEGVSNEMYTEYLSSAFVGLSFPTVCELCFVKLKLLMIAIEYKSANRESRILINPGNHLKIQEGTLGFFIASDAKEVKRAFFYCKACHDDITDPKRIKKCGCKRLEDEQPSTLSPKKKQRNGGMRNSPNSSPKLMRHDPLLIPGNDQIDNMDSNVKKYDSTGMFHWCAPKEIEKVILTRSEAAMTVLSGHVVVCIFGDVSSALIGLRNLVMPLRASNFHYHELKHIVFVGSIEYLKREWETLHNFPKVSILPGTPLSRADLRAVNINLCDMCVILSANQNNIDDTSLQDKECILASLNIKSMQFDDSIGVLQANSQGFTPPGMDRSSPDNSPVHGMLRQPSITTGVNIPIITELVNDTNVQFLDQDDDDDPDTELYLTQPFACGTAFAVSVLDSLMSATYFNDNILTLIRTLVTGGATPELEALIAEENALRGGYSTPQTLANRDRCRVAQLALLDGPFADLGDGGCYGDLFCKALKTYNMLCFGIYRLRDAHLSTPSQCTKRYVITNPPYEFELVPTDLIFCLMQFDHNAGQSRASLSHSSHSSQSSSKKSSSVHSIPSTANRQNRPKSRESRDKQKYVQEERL

## Nc1c(S(=O)(=O)[O-])cc(NC2CCCCC2)c2c1C(=O)c1ccccc1C2=O.[Na+] [Acid Blue 62, sodium 1-amino-4-(cyclohexylamino)-9,10-dioxo-9,10-dihydroanthracene-2-sulfonate]
[1]
  ΔV1/2 (mV) in 100 nm Ca^2+: −54.37 mV

## Nc1c(S(=O)(=O)O)cc(Br)c2c1C(=O)c1ccccc1C2=O [Bromaminic acid, reference compound]
  effect on BK channel activity, in words (SAR discussion based on V1/2 data): inhibitory effect

## C=C(C)[C@H]1O[C@H]2CC[C@@]3(C)[C@@](O)(CC[C@H]4[C@@H]5OC(C)(C)[C@H]6C[C@@H]7C(=C)Cc8c(Cl)cc9[nH]c(c5c9c8[C@@]76O)[C@@]43C)[C@@]23O[C@H]3[C@H]1O [Penitrem A, reference compound]
100 nM, 1 μM Ca2+, voltage ramp
  effect on single channel openings: abolished the single channel openings

## Nc1c(S(=O)(=O)[O-])cc(NC2CCCC2)c2c1C(=O)c1ccccc1C2=O.[Na+] [SR-5-8, sodium 1-amino-4-(cyclopentylamino)-9,10-dioxo-9,10-dihydroanthracene-2-sulfonate]
[1]
  ΔV1/2 (mV) in 100 nm Ca^2+: −24.24 mV

## COc1ccccc1Nc1cc(S(=O)(=O)[O-])c(N)c2c1C(=O)c1ccccc1C2=O.[Na+] [SR-5-12, sodium 1-amino-4-(2-methoxyphenylamino)-9,10-dioxo-9,10-dihydroanthracene-2-sulfonate]
[1]
  ΔV1/2 (mV) in 100 nm Ca^2+: −54.1 mV

## Nc1c(S(=O)(=O)[O-])cc(Nc2cc(F)cc(F)c2)c2c1C(=O)c1ccccc1C2=O.[Na+] [SR-5-14, sodium 1-amino-4-(3,5-difluorophenylamino)-9,10-dioxo-9,10-dihydroanthracene-2-sulfonate]
[1]
  ΔV1/2 (mV) in 100 nm Ca^2+: −24.2 mV

## Nc1c(S(=O)(=O)[O-])cc(Nc2cccc(F)c2)c2c1C(=O)c1ccccc1C2=O.[Na+] [SR-5-15, sodium 1-amino-4-(3-fluorophenylamino)-9,10-dioxo-9,10-dihydroanthracene-2-sulfonate]
[1]
  ΔV1/2 (mV) in 100 nm Ca^2+: −28.4 mV

## Nc1c(S(=O)(=O)[O-])cc(Nc2cccc(S(=O)(=O)O)c2)c2c1C(=O)c1ccccc1C2=O.[Na+] [SR-5-18, sodium 1-amino-9,10-dioxo-4-(3-sulfophenylamino)-9,10-dihydroanthracene-2-sulfonate]
[1]
  ΔV1/2 (mV) in 100 nm Ca^2+: −23.2 mV
  effect on BK channel activity, in words (SAR discussion based on V1/2 data): decreases the activity dramatically

## Cc1cccc(Nc2cc(S(=O)(=O)[O-])c(N)c3c2C(=O)c2ccccc2C3=O)c1.[Na+] [SR-5-26, sodium 4-(m-toluidino)-1-amino-9,10-dioxo-9,10-dihydroanthracene-2-sulfonate]
[1]
  ΔV1/2 (mV) in 100 nm Ca^2+: −53.5 mV

## Nc1c(S(=O)(=O)[O-])cc(Nc2ccc(F)c(C(F)(F)F)c2)c2c1C(=O)c1ccccc1C2=O.[Na+] [SR-5-28, sodium 1-amino-4-(4-fluoro-3-(trifluoromethyl)phenylamino)-9,10-dioxo-9,10-dihydroanthracene-2-sulfonate]
[1]
  ΔV1/2 (mV) in 100 nm Ca^2+: −83.2 mV

## CCc1cccc(Nc2cc(S(=O)(=O)[O-])c(N)c3c2C(=O)c2ccccc2C3=O)c1.[Na+] [SR-5-31, sodium 1-amino-4-(3-ethylphenylamino)-9,10-dioxo-9,10-dihydroanthracene-2-sulfonate]
[1]
  ΔV1/2 (mV) in 100 nm Ca^2+: −87.1 mV

## Nc1c(S(=O)(=O)[O-])cc(NC2CCCCCC2)c2c1C(=O)c1ccccc1C2=O.[Na+] [SR-5-32, sodium 1-amino-4-(cycloheptylamino)-9,10-dioxo-9,10-dihydroanthracene-2-sulfonate]
[1]
  ΔV1/2 (mV) in 100 nm Ca^2+: −61.1 mV

## Nc1c(S(=O)(=O)[O-])cc(Nc2cccc(OC(F)(F)F)c2)c2c1C(=O)c1ccccc1C2=O.[Na+] [SR-5-34, sodium 1-amino-9,10-dioxo-4-(3-(trifluoromethoxy)phenylamino)-9,10-dihydroanthracene-2-sulfonate]
[1]
  ΔV1/2 (mV) in 100 nm Ca^2+: −84.0 mV

## Nc1c(S(=O)(=O)[O-])cc(Nc2ccc(Cc3ccccc3)cc2)c2c1C(=O)c1ccccc1C2=O.[Na+] [SR-5-37, sodium 1-amino-4-(4-benzylphenylamino)-9,10-dioxo-9,10-dihydroanthracene-2-sulfonate]
[1]
  ΔV1/2 (mV) in 100 nm Ca^2+: −77.8 mV
  effect on BK channel activity, in words (SAR discussion based on V1/2 data): BK channel openers

## Nc1c(S(=O)(=O)[O-])cc(Nc2ccc(Cl)c(C(F)(F)F)c2)c2c1C(=O)c1ccccc1C2=O.[Na+] [SR-5-40, sodium 1-amino-4-(4-chloro-3-(trifluoromethyl)phenylamino)-9,10-dioxo-9,10-dihydroanthracene-2-sulfonate]
[1]
  ΔV1/2 (mV) in 100 nm Ca^2+: −97.8 mV

## Cc1ccc(Nc2cc(S(=O)(=O)[O-])c(N)c3c2C(=O)c2ccccc2C3=O)cc1C(F)(F)F.[Na+] [SR-5-44, sodium 1-amino-4-(4-methyl-3-(trifluoromethyl)phenylamino)-9,10-dioxo-9,10-dihydroanthracene-2-sulfonate]
[1]
  ΔV1/2 (mV) in 100 nm Ca^2+: −145.4 mV

## Nc1c(S(=O)(=O)[O-])cc(Nc2cccc(O)c2)c2c1C(=O)c1ccccc1C2=O.[Na+] [SR-5-53, sodium 1-amino-4-((3-hydroxyphenyl)amino)-9,10-dioxo-9,10-dihydroanthracene-2-sulfonate]
[2]
  ΔV1/2 (mV) in 100 nm Ca^2+: −44.1 mV

## CC(C)c1cccc(Nc2cc(S(=O)(=O)[O-])c(N)c3c2C(=O)c2ccccc2C3=O)c1.[Na+] [SR-5-63, sodium 1-amino-4-((3-isopropylphenyl)amino)-9,10-dioxo-9,10-dihydroanthracene-2-sulfonate]
[2]
  ΔV1/2 (mV) in 100 nm Ca^2+: −113.1 mV
  effect on BK channel activity, in words (SAR discussion based on V1/2 data): BK channel agonists

## Nc1c(S(=O)(=O)[O-])cc(Nc2ccc3c(c2)CCC3)c2c1C(=O)c1ccccc1C2=O.[Na+] [SR-5-64, sodium 1-amino-4-((2,3-dihydro-1H-inden-5-yl)amino)-9,10-dioxo-9,10-dihydroanthracene-2-sulfonate]
[2]
  ΔV1/2 (mV) in 100 nm Ca^2+: −87.6 mV

## Nc1c(S(=O)(=O)[O-])cc(Nc2cccc3c2CCCC3)c2c1C(=O)c1ccccc1C2=O.[Na+] [SR-5-65, sodium 1-amino-9,10-dioxo-4-((5,6,7,8-tetrahydronaphthalen-1-yl)amino)-9,10-dihydroanthracene-2-sulfonate]
[2]
  ΔV1/2 (mV) in 100 nm Ca^2+: −116.2 mV
  effect on BK channel activity, in words (SAR discussion based on V1/2 data): potent BK channel activator

## Nc1c(S(=O)(=O)[O-])cc(Nc2cccc3ccccc23)c2c1C(=O)c1ccccc1C2=O.[Na+] [SR-5-66]
[2]
  ΔV1/2 (mV) in 100 nm Ca^2+: −53.4 mV
  effect on BK channel activity, in words (SAR discussion based on V1/2 data): potency was dropped substantially

## Nc1c(S(=O)(=O)[O-])cc(Nc2cccc(Cc3ccccc3)c2)c2c1C(=O)c1ccccc1C2=O.[Na+] [SR-5-68, sodium 1-amino-4-((3-benzylphenyl)amino)-9,10-dioxo-9,10-dihydroanthracene-2-sulfonate]
[2]
  ΔV1/2 (mV) in 100 nm Ca^2+: −120.0 mV
  effect on BK channel activity, in words (SAR discussion based on V1/2 data): BK channel agonists

## Nc1c(S(=O)(=O)[O-])cc(Nc2ccc3c(c2)CCCC3)c2c1C(=O)c1ccccc1C2=O.[Na+] [SR-5-69, sodium 1-amino-9,10-dioxo-4-((5,6,7,8-tetrahydronaphthalen-2-yl)amino)-9,10-dihydroanthracene-2-sulfonate]
30 nM, example patch of FIG. 8A
  shift in the activation V1/2: very small shift
1 μM
  shifted the V1/2 by: 110 mV
1 μM, example patch of FIG. 8A
  V1/2 reached in the presence of the drug: approximately +5 mV
1 μM, example patch of FIG. 8A, hyperpolarising direction
  shift of the V1/2: > −100 mV
Table 2, 1 μM compound, inside-out patch
  ΔV1/2 (mV) in 100 nm Ca^2+: −101.6 mV
Increasing concentrations, inside-out patch
  dose dependence of effects on open probability and ΔV1/2 for BK channels: dose-dependent
  effect on BK channel activity, in words (SAR discussion based on V1/2 data): dramatic increase in the activity
n=4-6 patches containing BK channels, read-out: mean EC50 (Langmuir fit of mean V1/2 against concentration)
  EC50: 95 nM
